# Measured values as given in patent US20260272967A1, “TRADITIONAL CHINESE MEDICINE COMPOSITION FOR TREATING LUNG INFLAMMATION RELATED DISEASES AND ITS USES” (XIYUAN HOSPITAL, CHINA ACADEMY OF CHINESE MEDICAL SCIENCES, priority 2023, published 2026).
# Where two headings read alike, the source gives them in different places.
# What was measured:
# RAW264.7 cells = conditions: reported by NICM Health Research Institute; cited from earlier work
# [1] = system: LPS-induced RAW264.7 cells; experiment: Inhibition of NO release in LPS-induced RAW264.7 cells, with Chou-Talalay synergy analysis (Experimental Example 1); type: cell-based, mouse; conditions: for NO Production Rate: LPS 50 ng/mL 24 h, LPS without drug = 100%; for IC50: read-out: IC50 (concentration at which NO production is 50%), LPS-induced RAW264.7 cells, NO release
# Experimental: RAW264.7 cells were seeded in a 96-well cell culture plate at 1×10^6/mL and cultured for 24 h. […] The cells were pretreated with the serially diluted drug solutions for 2 h, and then treated with LPS (50 ng/mL) for 24 h. The cell supernatant was aspirated, the NO release level in the supernatant was determined, and the IC50 values of the four groups of drugs inhibiting NO release were calculated. The dose-effect relationships of the three single components and the three-component composition were imported into CalcuSyn software 2.0 (Biosoft, USA), and the inhibition rate-combination index plot (Fa-CI) was generated using the Chou-Talalay mathematical model. The Fa-CI plot can reflect the relationship between the CI value and the effective level of a certain biological index (i.e., the inhibitory effect on NO). The intensity and nature of the interaction between drugs can be quantitatively judged by the value of CI: CI>1 indicates antagonism, CI=1 indicates additive effect, and CI<1 indicates synergism.
# ALI mice induced by LPS [2] = experiment: Mouse acute lung injury model: BALF inflammatory factors and lung pathology (Experimental Example 6); type: in vivo; conditions: three-component 398 mg/kg intragastric, dexamethasone 5 mg/kg i.p.
# Experimental: (§1) Establishment of mouse acute lung injury model: Mice were anesthetized with isoflurane, and LPS (1 mg/kg) was instilled into one side of the nasal cavity. After instillation, the mice were stood upright quickly, and returned to the original feeding cage after waking up to complete modeling.
# (§2) All drugs were administered 0.5 h after establishing the mouse ALI model with LPS.
# The levels of inflammatory factors IL-1B, IL-6 and TNF-α in BALF were determined in strict accordance with the instructions of the inflammatory factor detection kit.
# The right upper lobe of the mouse lung was fixed with tissue fixative for 72 hours, and HE-stained sections were prepared by paraffin embedding, sectioning, dehydration and staining. Lung tissue lesions were observed under a microscope.
# ALI mice induced by LPS [3] = experiment: Mouse acute lung injury model: lung index, W/D, BALF leukocytes and protein (Experimental Example 5); type: in vivo; conditions: three-component 398 mg/kg intragastric, dexamethasone 5 mg/kg i.p.
# Experimental: as §1, §2
# 24 h after model establishment, mice were anesthetized with pentobarbital sodium and sacrificed by abdominal aorta bloodletting. Lung tissues were dissected and weighed, and the lung coefficient (lung tissue weight/mouse body weight) was calculated; the right upper lobe of the mouse lung was fixed in formalin, and pathological sections were made and stained with HE to observe pathological changes; the middle and lower lobes of the right lung of the mouse were weighed (wet weight), placed in a 60° C. oven to dry to constant weight, and weighed (dry weight), and the wet-to-dry weight ratio (wet weight/dry weight, W/D) was calculated. The right bronchus of the mouse was ligated, the left lobe of the lung was taken, and bronchoalveolar lavage fluid (BALF) was recovered after lavage with 0.8 mL PBS for three times. The total number of leukocytes and total protein concentration were determined using an automatic cell counter.
SMILES,IC50 ([1]; Mus musculus) [µM],inhibiting LPS-induced NO release from RAW264.7 cells (RAW264.7 cells),NO Production Rate ([1]; 0.86 μM) [%],NO Production Rate ([1]; 1.63 μM) [%],NO Production Rate ([1]; 3.125 μM) [%],NO Production Rate ([1]; 6.25 μM) [%],NO Production Rate ([1]; 12.5 μM) [%],NO Production Rate ([1]; 25 μM) [%],NO Production Rate ([1]; 50 μM) [%],NO Production Rate ([1]; 100 μM) [%],other results
C=C1CC[C@@H]2[C@](C)(CO)[C@H](O)CC[C@@]2(C)[C@@H]1C/C=C1/C(=O)OC[C@H]1O [andrographolide],,a certain effect,,,,,,,,,
"C[C@@H]1C[C@H]2[C@@H]3CCC4=CC(=O)C=C[C@]4(C)[C@@]3(F)[C@@H](O)C[C@]2(C)[C@@]1(O)C(=O)CO [Dexamethasone, dexamethasone]",,,,,,,,,,,"IL-1β in BALF (ALI mice induced by LPS [2]; ALI mice, 24 h after LPS): 186.475 ± 76.810 pg/mL; IL-6 in BALF (ALI mice induced by LPS [2]; ALI mice, 24 h after LPS): 819.19 ± 506.63 pg/mL; TNF-α in BALF (ALI mice induced by LPS [2]; ALI mice, 24 h after LPS): 345.080 ± 239.594 pg/mL; Pathological Score (ALI mice induced by LPS [2]; lung tissue, HE staining): 6.70 ± 2.50; BALF Leukocytes (ALI mice induced by LPS [3]; 24 h after LPS): 18.760 ± 7.468 ×10^5 cells/mL; BALF Protein Concentration (ALI mice induced by LPS [3]; 24 h after LPS): 0.814 ± 0.183 mg/mL; Lung Index (BW) (ALI mice induced by LPS [3]; lung tissue weight/body weight, 24 h after LPS 1 mg/kg intranasal, 0.5 h after LPS): 0.816 ± 0.089; Wet-to-Dry Weight Ratio (W/D) (ALI mice induced by LPS [3]; right lung lobes, 24 h after LPS): 4.701 ± 0.221"
O=c1cc(-c2ccc(O)c(O)c2)oc2cc(O)cc(O)c12 [luteolin],,a certain effect,,,,,,,,,
"CCCCC/C=C/C(=O)CCc1ccc(O)c(OC)c1 [6-Shogaol, 6-shogaol]",,a certain effect,,60.42 ± 6.14,56.75 ± 6.97,41.41 ± 2.75,11.42 ± 2.69,8.67 ± 0.84,6.11 ± 2.41,5.89 ± 3.38,IC50 [1]: 3.23 ± 0.42 µM

# Further lines, with some results ahead:
IC50 ([1]; Mus musculus) [µM],SMILES,inhibiting LPS-induced NO release from RAW264.7 cells (RAW264.7 cells),NO Production Rate ([1]; 0.86 μM) [%],NO Production Rate ([1]; 1.63 μM) [%],NO Production Rate ([1]; 3.125 μM) [%],NO Production Rate ([1]; 6.25 μM) [%],NO Production Rate ([1]; 12.5 μM) [%],NO Production Rate ([1]; 25 μM) [%],NO Production Rate ([1]; 50 μM) [%],NO Production Rate ([1]; 100 μM) [%],other results
78.8 ± 11.9,"CC1(C)[C@@H](O[C@H]2O[C@H](C(=O)O)[C@@H](O)[C@H](O)[C@H]2O[C@@H]2O[C@H](C(=O)O)[C@@H](O)[C@H](O)[C@H]2O)CC[C@]2(C)[C@H]3C(=O)C=C4[C@@H]5C[C@@](C)(C(=O)O)CC[C@]5(C)CC[C@@]4(C)[C@]3(C)CC[C@@H]12 [Glycyrrhizic Acid, glycyrrhizic acid]",a certain effect,105.02 ± 8.02,88.06 ± 5.38,86.28 ± 2.29,81.79 ± 5.81,80.67 ± 4.74,71.04 ± 3.50,55.35 ± 3.98,43.54 ± 6.10,
11.3 ± 1.32,"O=c1cc(-c2ccccc2)oc2cc(O)c(O)c(O)c12 [Baicalein, baicalein]",a certain effect,90.14 ± 7.64,,,,60.52 ± 5.14,40.47 ± 6.87,7.77 ± 3.47,2.44 ± 2.33,
